# Molecular target: T1, human MCH-1R (Homo sapiens, UniProt Q99705)
# T1 construct: expressed in transfected cells; host or cells: CHO-K1 (American Type Culture Collection), vector pEF/myc/cyto; membranes used
# Test: MCH binding inhibition test
# Conditions: inhibition of specific [125I]MCH (50 pM) binding; membranes of MCH-1R expressing CHO-K1 cells; 25° C., one hour
# Description: A human MCH-1R encoding cDNA sequence [FEBS Letters, Vol. 398, 253 (1996); Biochimica et Biophisica Acta, Vol. 1401, 216 (1998)] was cloned to a plasmid vector pEF/myc/cyto (by Invitrogen Corporation). The obtained expression vector was transfected to host cells CHO-K1 (American Type Culture Collection) using Lipofectamine Plus Reagent (by Life Technology Inc.) to provide MCH-1R expression cells.
# Membrane samples prepared from the MCH-1R expression cells were incubated with each test compound and 50 pM of [^125I]MCH (by NEN Co.), in an assay buffer (50 mM Tris buffer comprising 10 mM magnesium chloride, 2 mM ethylenediamine tetraacetate, 0.01% bacitracin and 0.2% bovine serum albumin; pH 7.4) at 25° C. for an hour, followed by filtration through a glass filter GF/C (by Wattman Co.). After washing the glass filter with 50 mM Tris buffer (pH 7.4) comprising 10 mM magnesium chloride, 2 mM ethylenediamine tetraacetate and 0.04% Tween-20, the radioactive activity on the glass filter was measured. The non-specific binding was measured in the presence of 1 μM human MCH, and the 50% inhibition concentration (IC50 value) of each test compound to the specific [^125I]MCH binding was determined.
# T1 sequence (Q99705 whole entry): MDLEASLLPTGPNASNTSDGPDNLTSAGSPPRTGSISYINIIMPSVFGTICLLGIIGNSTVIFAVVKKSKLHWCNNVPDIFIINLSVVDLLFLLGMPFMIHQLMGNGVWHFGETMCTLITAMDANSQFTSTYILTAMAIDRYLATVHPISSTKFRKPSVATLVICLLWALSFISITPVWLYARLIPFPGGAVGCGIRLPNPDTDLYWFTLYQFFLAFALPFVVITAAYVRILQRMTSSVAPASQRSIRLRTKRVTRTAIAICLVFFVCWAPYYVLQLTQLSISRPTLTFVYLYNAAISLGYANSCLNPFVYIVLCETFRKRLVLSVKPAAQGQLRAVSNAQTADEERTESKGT
row,IC50,SMILES
1,7.6 nM,"CCO/N=C(\c1ccc(F)c(F)c1)c1ccc(CN2CC3(CCN(c4ccc(F)nc4)C3)C2)cn1 [Example 1-10, (E)-(3,4-difluorophenyl)(5-{[6-(6-fluoro-3-pyridinyl)-2,6-diazaspiro[3.4]oct-2-yl]methyl}-2-pyridinyl)methanone O-ethyloxime]"
2,3.2 nM,"CCO/N=C(\c1ccc(F)c(F)c1)c1ccc(CN2CCC3(CCN(c4ccnnc4)C3)C2)cn1 (centres unmarked) [Example 2-3, (E)-(3,4-difluorophenyl)(5-{[7-(4-pyrazinyl)-2,7-diazaspiro[4.4]non-2-yl]methyl}-2-pyridinyl)methanone O-ethyloxime]"
3,2.4 nM,"CCO/N=C(\c1ccc(F)c(F)c1)c1ccc(CN2CC3(C2)CN(c2ccnc(C)c2)C3)cn1 [Example 2-24, (E)-(3,4-difluorophenyl)(5-{[6-(2-methyl-4-pyridinyl)-2,6-diazaspiro[3.3]hept-2-yl]methyl}-2-pyridinyl)methanone O-ethyloxime]"
4,0.9 nM,"CCO/N=C(\c1ccc(F)c(F)c1)c1ccc(CN2CC3(C2)CN(c2ccn4ccnc4c2)C3)cn1 [Example 2-40, (E)-(3,4-difluorophenyl){5-[(6-imidazo[1,2-a]pyridin-7-yl-2,6-diazaspiro[3.3]hept-2-yl)methyl]-2-pyridinyl}methanone O-ethyloxime]"
5,0.36 nM,"CCCc1cnc2cc(N3CC4(CN(Cc5ccc(/C(=N/OCC)c6ccc(F)c(F)c6)nc5)C4)C3)ccn12 [Example 2-44, (E)-(3,4-difluorophenyl)(5-{[6-(3-propylimidazo[1,2-a]pyridin-7-yl)-2,6-diazaspiro[3.3]hept-2-yl]methyl}-2-pyridinyl)methanone O-ethyloxime]"

# From patent US20110071129A1, “SPIRODIAMINE-DIARYL KETOXIME DERIVATIVE” (priority 2008, published 2011)
